Assay results: ChEMBL document CHEMBL2216750, “Irreversible protein kinase inhibitors: balancing the benefits and risks” (J Med Chem, 2012)
Each block holds one molecule with its values, some of them ahead of it.

Experiments:
[1] = target: Mitogen-activated protein kinase 1 (Homo sapiens, UniProt P28482); assay: Inhibition of Erk2
[2] = target: Dual specificity mitogen-activated protein kinase kinase 1 (Homo sapiens, UniProt Q02750); assay: Inhibition of MEK1
[3] = target: T1, Dual specificity mitogen-activated protein kinase kinase 7 (Homo sapiens, UniProt O14733); assay: Inhibition of MEK7
T1 sequence (O14733 whole entry): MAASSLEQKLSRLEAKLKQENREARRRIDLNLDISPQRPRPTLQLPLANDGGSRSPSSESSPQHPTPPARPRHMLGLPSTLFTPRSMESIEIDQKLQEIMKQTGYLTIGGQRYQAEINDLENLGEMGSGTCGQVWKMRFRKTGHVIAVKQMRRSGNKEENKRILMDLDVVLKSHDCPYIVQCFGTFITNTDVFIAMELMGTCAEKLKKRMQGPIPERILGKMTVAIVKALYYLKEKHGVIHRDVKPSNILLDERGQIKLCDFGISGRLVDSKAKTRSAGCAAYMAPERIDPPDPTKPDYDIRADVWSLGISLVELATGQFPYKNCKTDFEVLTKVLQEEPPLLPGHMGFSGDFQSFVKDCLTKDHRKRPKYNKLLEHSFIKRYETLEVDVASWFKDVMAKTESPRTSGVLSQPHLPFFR

[4] = target: T2, Dual specificity mitogen-activated protein kinase kinase 4 (Homo sapiens, UniProt P45985); assay: Inhibition of MKK4
T2 sequence (P45985 whole entry): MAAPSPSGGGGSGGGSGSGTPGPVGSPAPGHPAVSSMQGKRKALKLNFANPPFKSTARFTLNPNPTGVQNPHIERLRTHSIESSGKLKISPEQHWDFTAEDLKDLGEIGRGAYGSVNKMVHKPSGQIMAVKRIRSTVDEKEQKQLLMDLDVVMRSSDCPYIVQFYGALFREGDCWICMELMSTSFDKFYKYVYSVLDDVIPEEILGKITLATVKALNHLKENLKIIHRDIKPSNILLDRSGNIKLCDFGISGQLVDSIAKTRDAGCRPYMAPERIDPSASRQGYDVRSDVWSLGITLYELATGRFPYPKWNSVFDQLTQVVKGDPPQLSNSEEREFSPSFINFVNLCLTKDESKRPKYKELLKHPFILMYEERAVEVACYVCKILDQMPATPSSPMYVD

[5] = target: T3, Proto-oncogene tyrosine-protein kinase Src (Gallus gallus, UniProt P00523); assay: Inhibition of chicken c-Src using IYGEFKKK peptide as a substrate and [32P]ATP by […]
[6] = target: Mitogen-activated protein kinase kinase kinase 1 (Homo sapiens, UniProt Q13233); assay: Inhibition of MEKK1
Mitogen-activated protein kinase kinase kinase 1, sequence (Q13233 whole entry): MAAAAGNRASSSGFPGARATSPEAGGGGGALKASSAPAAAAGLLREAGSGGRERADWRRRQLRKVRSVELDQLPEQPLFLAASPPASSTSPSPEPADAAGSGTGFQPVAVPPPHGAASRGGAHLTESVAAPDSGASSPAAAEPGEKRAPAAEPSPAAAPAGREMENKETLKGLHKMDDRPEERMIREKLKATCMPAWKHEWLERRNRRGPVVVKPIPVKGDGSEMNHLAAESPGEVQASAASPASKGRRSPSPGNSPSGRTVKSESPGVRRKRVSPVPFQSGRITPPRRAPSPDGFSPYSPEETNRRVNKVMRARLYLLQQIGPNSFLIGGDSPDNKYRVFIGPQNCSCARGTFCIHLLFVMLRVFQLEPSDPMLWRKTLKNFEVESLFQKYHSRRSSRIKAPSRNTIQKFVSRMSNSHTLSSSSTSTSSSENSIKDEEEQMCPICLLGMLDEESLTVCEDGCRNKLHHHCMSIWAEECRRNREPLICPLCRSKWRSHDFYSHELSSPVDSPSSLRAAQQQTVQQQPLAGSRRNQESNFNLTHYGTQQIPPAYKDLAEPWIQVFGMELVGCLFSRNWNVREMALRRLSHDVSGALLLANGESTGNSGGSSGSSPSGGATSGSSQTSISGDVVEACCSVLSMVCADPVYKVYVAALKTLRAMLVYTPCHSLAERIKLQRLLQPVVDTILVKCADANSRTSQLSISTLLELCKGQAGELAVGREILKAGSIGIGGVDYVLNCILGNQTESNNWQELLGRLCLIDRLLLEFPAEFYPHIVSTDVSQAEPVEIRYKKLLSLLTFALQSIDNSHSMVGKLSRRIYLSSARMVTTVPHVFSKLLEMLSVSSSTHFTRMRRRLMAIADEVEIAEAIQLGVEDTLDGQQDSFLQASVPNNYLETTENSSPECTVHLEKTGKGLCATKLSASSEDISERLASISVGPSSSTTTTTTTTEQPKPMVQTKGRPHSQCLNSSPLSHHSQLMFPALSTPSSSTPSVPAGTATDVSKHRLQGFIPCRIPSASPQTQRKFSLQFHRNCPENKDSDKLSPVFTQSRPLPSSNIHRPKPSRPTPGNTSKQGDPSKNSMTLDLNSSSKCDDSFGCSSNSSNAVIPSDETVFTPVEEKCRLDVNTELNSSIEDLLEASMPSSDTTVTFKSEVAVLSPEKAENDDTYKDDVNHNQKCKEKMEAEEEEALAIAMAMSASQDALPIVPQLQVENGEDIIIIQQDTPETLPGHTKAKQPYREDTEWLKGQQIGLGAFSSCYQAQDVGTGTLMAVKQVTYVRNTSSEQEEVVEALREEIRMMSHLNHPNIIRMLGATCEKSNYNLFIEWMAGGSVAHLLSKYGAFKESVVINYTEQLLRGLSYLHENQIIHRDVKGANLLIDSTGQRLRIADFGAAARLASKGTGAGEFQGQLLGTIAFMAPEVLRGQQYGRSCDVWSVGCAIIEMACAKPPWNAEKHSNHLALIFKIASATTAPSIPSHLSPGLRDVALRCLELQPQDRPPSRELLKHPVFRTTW

[7] = system: Mus musculus; assay: Receptor occupancy of Btk in CIA mouse model at 60 mg/kg/day; type: functional
[8] = target: T3, Proto-oncogene tyrosine-protein kinase Src; assay: Inhibition of chicken c-Src
[9] = target: Proto-oncogene tyrosine-protein kinase Src (Gallus gallus, UniProt P00523, T338G); assay: Inhibition of chicken c-Src T338G mutant
[10] = target: RAC-alpha serine/threonine-protein kinase (Homo sapiens, UniProt P31749); assay: Inhibition of human AKT1 using biotinylated GSKalpha peptide (SGRARTSSFA) as a substrate after 1 hr
RAC-alpha serine/threonine-protein kinase, sequence (P31749 whole entry): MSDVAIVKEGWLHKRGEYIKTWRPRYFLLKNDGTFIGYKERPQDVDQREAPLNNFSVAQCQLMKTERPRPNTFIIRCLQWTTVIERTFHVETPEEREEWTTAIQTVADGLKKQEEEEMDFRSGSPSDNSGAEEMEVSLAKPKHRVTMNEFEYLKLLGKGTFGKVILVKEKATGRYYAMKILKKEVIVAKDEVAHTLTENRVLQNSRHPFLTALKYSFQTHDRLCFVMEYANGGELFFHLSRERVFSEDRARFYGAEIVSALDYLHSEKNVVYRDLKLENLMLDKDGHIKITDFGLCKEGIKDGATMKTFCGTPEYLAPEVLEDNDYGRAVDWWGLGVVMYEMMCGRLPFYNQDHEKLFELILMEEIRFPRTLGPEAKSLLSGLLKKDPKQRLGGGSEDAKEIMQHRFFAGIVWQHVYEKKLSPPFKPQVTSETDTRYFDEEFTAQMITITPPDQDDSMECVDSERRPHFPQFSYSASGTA

Dual specificity mitogen-activated protein kinase kinase 1, sequence (Q02750 whole entry): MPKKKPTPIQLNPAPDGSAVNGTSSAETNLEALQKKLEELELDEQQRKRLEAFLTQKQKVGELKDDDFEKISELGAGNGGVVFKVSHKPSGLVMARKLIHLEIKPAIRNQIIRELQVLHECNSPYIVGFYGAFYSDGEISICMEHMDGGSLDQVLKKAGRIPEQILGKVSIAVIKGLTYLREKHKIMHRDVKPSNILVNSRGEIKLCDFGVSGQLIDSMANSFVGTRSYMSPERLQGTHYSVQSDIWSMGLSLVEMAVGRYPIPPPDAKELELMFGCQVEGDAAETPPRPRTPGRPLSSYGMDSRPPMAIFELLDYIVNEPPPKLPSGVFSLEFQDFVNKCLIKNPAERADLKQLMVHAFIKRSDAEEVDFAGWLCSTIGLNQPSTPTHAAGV
Mitogen-activated protein kinase 1, sequence (P28482 whole entry): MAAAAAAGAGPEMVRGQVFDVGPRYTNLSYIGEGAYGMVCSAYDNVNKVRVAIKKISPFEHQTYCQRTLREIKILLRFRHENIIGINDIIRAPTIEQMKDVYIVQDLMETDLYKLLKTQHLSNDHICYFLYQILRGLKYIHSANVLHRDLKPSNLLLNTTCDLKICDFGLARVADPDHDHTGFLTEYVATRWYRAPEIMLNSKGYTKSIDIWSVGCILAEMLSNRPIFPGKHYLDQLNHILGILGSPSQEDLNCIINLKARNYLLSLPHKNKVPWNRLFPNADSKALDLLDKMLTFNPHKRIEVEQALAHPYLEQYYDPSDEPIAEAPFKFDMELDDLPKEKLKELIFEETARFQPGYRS

Compound: COc1cc(O)c2c(c1)/C=C/C[C@H](O)[C@H](O)C(=O)/C=C\C[C@H](C)OC2=O
- IC50 [1]: 80 nM
- IC50 [2]: 6 nM
- IC50 [3]: 300 nM
- IC50 [4]: > 3000 nM

Compound: CCNc1cc(O)c2c(c1)/C=C/C[C@@H](O)[C@H](O)C(=O)/C=C\[C@H](C)[C@H](C)OC2=O
- IC50 [2]: 5.2 nM
- IC50 [6]: 31 nM

Compound: C=CC(=O)Nc1cccc(Nc2nc(Nc3ccc(Oc4ccnc(C(=O)NC)c4)cc3)ncc2F)c1
- Occ [7]: 70%

More lines, now with the values ahead:

- IC50 [5]: > 5000 nM
Compound: C=CS(=O)(=O)Nc1cccc(Cc2nn(C(C)C)c3ncnc(N)c23)c1

- IC50 [8]: > 27000 nM
- IC50 [9]: 1 nM
Compound: O=C(Nc1ccc2ncnc(Nc3cccc(Br)c3)c2c1)[C@@H]1O[C@H]1CN1CCCCC1

- IC50 [8]: > 27000 nM
- IC50 [9]: 1 nM
Compound: CC#CC(=O)Nc1ccc2ncnc(Nc3cccc(Br)c3)c2c1

- IC50 [8]: > 27000 nM
- IC50 [9]: 1 nM
Compound: CN(C)C/C=C/C(=O)Nc1ccc2ncnc(Nc3cccc(Br)c3)c2c1

- IC50 [10]: 313 nM
Compound: CCC[C@H]1O[C@@H]2CC(=O)O[C@@H]2C2=C1C(=O)c1c(O)cccc1C2=O [FRENOLICIN B]
